Values quoted from earlier work as cited in patent publication US20230404077A1, “METHODS AND FORMULATIONS FOR CONTROLLING FLEA INFESTATIONS” (EctoGuard, LLC, priority 2022, published 2023).

How the values were obtained:
[1] = test system: fleas; conditions: cats, topical
[2] = test system: fleas; conditions: systemic / administered orally
[3] = test system: fleas; conditions: cats

## spinetoram
[1]
  topically active dose, corresponding extrapolated value: around 10 mg/kg
[2]
  activity relative to spinosad: 5.5 times

## spinosad
[3]
  commercial oral dose for effective control (≥90% mortality): 45 to 90 mg/kg
